Values of other authors, collected in patent US7605180B2, “Nateglinide-containing preparation” (Ajinomoto Co., Inc., priority 2000, dated 2009).

Key:
blood glucose = conditions: oral administration

SMILES: CC(C)[C@H]1CC[C@H](C(=O)N[C@H](Cc2ccccc2)C(=O)O)CC1 [nateglinide, N-(trans-4-isopropylcyclohexylcarbonyl)-D-phenylalanine]
- Blood glucose-lowering effect (blood glucose): excellent blood glucose-lowering effect
- Water solubility: poorly water soluble
